According to US9227953B2, “Crystal form” (Glaxo Group Limited, priority 2011, dated 2016):

Key:
Assay type in all cases: physicochemical
[1] = chemical stability of the crystal form
[2] = relative thermodynamic stability of rilapladib crystal forms; conditions: compared with other crystalline forms of rilapladib
Dynamic Vapor Sorption = conditions: product of Example 1(d)
Description: The product was characterized in several ways and determined to be the form termed Form 1 rilapladib. It provided an XRPD pattern as represented in FIG. 3, a Raman spectrum as represented in FIG. 4, and a capillary melting point of 116-118° C.

chemical stability [1] | hygroscopicity by Dynamic Vapor Sorption (Dynamic Vapor Sorption) | Structure (SMILES) | thermodynamic stability [2]
very good chemical stability | – | COCCN1CCC(N(Cc2ccc(-c3ccc(C(F)(F)F)cc3)cc2)C(=O)Cn2c(SCc3cccc(F)c3F)cc(=O)c3ccccc32)CC1 [rilapladib Form 3, N-[1-(2-methoxyethyl)-piperidin-4-yl]-2-[2-(2,3-difluorobenzylthio)-4-oxo-4H-quinolin-1-yl]-N-(4′-trifluoromethylbiphenyl-4-ylmethyl)acetamide] | more thermodynamically stable than Form 1 and Form 2
– | non-hygroscopic | COCCN1CCC(N(Cc2ccc(-c3ccc(C(F)(F)F)cc3)cc2)C(=O)Cn2c(SCc3cccc(F)c3F)cc(=O)c3ccccc32)CC1 [Form 1 rilapladib, N-[1-(2-methoxyethyl)-piperidin-4-yl]-2-[2-(2,3-difluorobenzylthio)-4-oxo-4H-quinolin-1-yl]-N-(4′-trifluoromethylbiphenyl-4-ylmethyl)acetamide] | –
